Test results reported in patent US9234000B2, “Benzylamine derivatives as inhibitors of plasma kallikrein” (KalVista Pharmaceuticals Limited, priority 2011, dated 2016).
≈ marks a conversion by molar mass, not a printed value.

Key:
Human plasma kallikrein = Human plasma kallikrein (Homo sapiens (Human), UniProt P03952); test: Determination of the IC50 for plasma kallikrein; format: biochemical; conditions: 37° C., substrate H-DPro-Phe-Arg-AFC, read-out: IC50 (human PKal)
Procedure, shortened: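 Residual activity (initial rate, absorbance at 410 nm) gave the IC50. Reactions at 37° C combined human plasma kallikrein, substrate H-DPro-Phe-Arg-AFC and a range of inhibitor concentrations.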

[1] = Determination of thermodynamic solubility in phosphate buffer; format: physicochemical; conditions: ammonium phosphate buffer pH7.4, 290 mOsm, 37° C., nominal 1 mg/mL; for solubility at 1 h: pH 7.4, aqueous buffer, thermodynamic from solid, read-out: Solubility in PO4 buffer
Protocol: Determination of Thermodynamic Solubility in Phosphate Buffer
The thermodynamic solubility of compound was determined in Ammonium Phosphate Buffer (pH7.4, 290 mOsm). Compounds were made up at a nominal concentration of 1 mg/mL, vortexed then placed on a shaker for 1 h, 37° C. at approximately 950 rpm. Following incubation samples were transferred to eppendorf tubes and centrifuged at 15,000 g (r.c.f.) for 10 minutes at 37° C. The concentration of compound in the supernatant was determined by LC-MS/MS analysis using a calibration line prepared from a DMSO stock.

Human KLK1 = Human KLK1 (Homo sapiens (Human), UniProt P06870); test: Determination of the IC50 for KLK1; format: biochemical; conditions: Human KLK1, 37° C., substrate H-DVal-Leu-Arg-AFC; Table 13
Procedure, shortened: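 Test compound at various concentrations was incubated with human KLK1 and the fluorogenic substrate H-DVal-Leu-Arg-AFC at 37° C. Absorbance change at 410 nm gave the initial reaction rate, from which IC50 was obtained.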

Human KLK1, sequence (P06870 25-262): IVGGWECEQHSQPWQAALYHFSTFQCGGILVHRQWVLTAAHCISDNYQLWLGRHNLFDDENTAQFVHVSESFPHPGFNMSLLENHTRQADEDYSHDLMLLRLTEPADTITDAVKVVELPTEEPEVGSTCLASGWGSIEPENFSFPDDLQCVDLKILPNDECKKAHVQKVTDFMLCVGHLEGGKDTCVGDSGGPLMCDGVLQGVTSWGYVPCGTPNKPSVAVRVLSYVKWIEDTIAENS
Human plasma kallikrein, sequence (P03952 391-638): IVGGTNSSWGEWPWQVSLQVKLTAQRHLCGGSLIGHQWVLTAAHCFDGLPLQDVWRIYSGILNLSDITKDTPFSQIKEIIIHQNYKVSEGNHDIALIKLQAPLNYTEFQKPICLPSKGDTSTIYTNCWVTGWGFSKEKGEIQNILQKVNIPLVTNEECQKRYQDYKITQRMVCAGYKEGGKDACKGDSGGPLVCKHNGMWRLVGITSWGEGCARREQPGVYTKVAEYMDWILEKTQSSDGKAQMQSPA
Human plasma kallikrein, sequence (P03952 20-390 partner): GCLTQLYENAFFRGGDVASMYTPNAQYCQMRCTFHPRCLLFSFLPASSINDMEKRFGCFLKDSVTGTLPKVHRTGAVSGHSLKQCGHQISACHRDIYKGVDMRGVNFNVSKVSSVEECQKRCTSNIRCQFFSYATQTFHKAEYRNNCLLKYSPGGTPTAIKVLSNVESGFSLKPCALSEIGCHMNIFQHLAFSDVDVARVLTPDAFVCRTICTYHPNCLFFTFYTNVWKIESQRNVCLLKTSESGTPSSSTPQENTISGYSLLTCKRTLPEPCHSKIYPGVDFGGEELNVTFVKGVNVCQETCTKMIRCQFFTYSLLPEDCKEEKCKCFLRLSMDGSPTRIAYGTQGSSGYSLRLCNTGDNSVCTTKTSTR

Compound | IC50 (Human plasma kallikrein) | solubility at 1 h [1] | IC50 (Human KLK1) | solubility in PO4 buffer ([1]; 1 h)
CCOc1ccc(C[C@@H](NC(=O)c2sccc2N)C(=O)N[C@@H](Cc2ccccc2)C(=O)NCc2ccc(CN)cc2)cc1 [Example 125, 3-Amino-thiophene-2-carboxylic acid [(R)-1-[(S)-1-(4-aminomethyl-benzylcarbamoyl)-2-phenyl-ethylcarbamoyl]-2-(4-ethoxy-phenyl)-ethyl]-amide] | 10 nM | 43.6 µg/mL (≈ 72.7 µM) | 7000 nM | 
CCOc1ccc(C[C@@H](NC(=O)c2ccccc2)C(=O)N[C@@H](Cc2ccccn2)C(=O)NCc2ccc(CN)cc2)cc1 [Example 140, N-[(R)-1-[(S)-1-(4-Aminomethyl-benzylcarbamoyl)-2-pyridin-2-yl-ethylcarbamoyl]-2-(4-ethoxy-phenyl)-ethyl]-benzamide] | 45 nM | 79.6 µg/mL (≈ 137 µM) | > 10000 nM | 
CCOc1ccc(C[C@@H](NC(=O)c2ccccc2)C(=O)N[C@@H](Cc2ccc(Cl)c(Cl)c2)C(=O)NCc2ccc(CN)cc2)cc1 [Example 141, N-[(R)-1-[(S)-1-(4-Aminomethyl-benzylcarbamoyl)-2-(3,4-dichloro-phenyl)-ethylcarbamoyl]-2-(4-ethoxy-phenyl)-ethyl]-benzamide] | 55 nM | 0.15 µg/mL (≈ 0.232 µM) | > 10000 nM | 
CCOc1ccc(C[C@@H](NC(=O)c2ccccc2)C(=O)N[C@@H](Cc2cccnc2)C(=O)NCc2ccc(CN)cc2)cc1 [Example 145, N-[(R)-1-[(S)-1-(4-Aminomethyl-benzylcarbamoyl)-2-pyridin-3-yl-ethylcarbamoyl]-2-(4-ethoxy-phenyl)-ethyl]-benzamide] | 25 nM | 68.9 µg/mL (≈ 119 µM) | > 10000 nM | 
CCOc1ccc(C[C@@H](NC(=O)c2ccccc2)C(=O)N[C@@H](Cc2ccsc2)C(=O)NCc2ccc(CN)cc2)cc1 [Example 151] | 9 nM |  | > 10000 nM | 4.31 µg/mL (≈ 7.37 µM)
CCOc1ccc(C[C@@H](NC(=O)c2ccc(OC)cc2)C(=O)N[C@@H](Cc2ccccn2)C(=O)NCc2ccc(CN)cc2)cc1 [Example 158, N-[(R)-1-[(S)-1-(4-Aminomethyl-benzylcarbamoyl)-2-pyridin-2-yl-ethylcarbamoyl]-2-(4-ethoxy-phenyl)-ethyl]-4-methoxy-benzamide] | 47 nM | 70.6 µg/mL (≈ 116 µM) | > 10000 nM | 
CCOc1ccc(C[C@@H](NC(=O)c2cccs2)C(=O)N[C@@H](Cc2cccnc2)C(=O)NCc2ccc(CN)cc2)cc1 [Example 162, Thiophene-2-carboxylic acid [(R)-1-[(S)-1-(4-aminomethyl-benzylcarbamoyl)-2-pyridin-3-yl-ethylcarbamoyl]-2-(4-ethoxy-phenyl)-ethyl]-amide] | 10 nM | 69.7 µg/mL (≈ 119 µM) | > 10000 nM | 
CCOc1ccc(C[C@@H](NC(=O)c2ccc(Cl)cc2)C(=O)N[C@@H](Cc2cccnc2)C(=O)NCc2ccc(CN)cc2)cc1 [Example 173, N-[(R)-1-[(S)-1-(4-Aminomethyl-benzylcarbamoyl)-2-pyridin-3-yl-ethylcarbamoyl]-2-(4-ethoxy-phenyl)-ethyl]-4-chloro-benzamide] | 213 nM | 2.38 µg/mL (≈ 3.88 µM) | > 10000 nM | 
CCOc1ccc(C[C@@H](NC(=O)c2ccno2)C(=O)N[C@@H](Cc2cccnc2)C(=O)NCc2ccc(CN)cc2)cc1 [Example 174, Isoxazole-5-carboxylic acid [(R)-1-[(S)-1-(4-aminomethyl-benzylcarbamoyl)-2-pyridin-3-yl-ethylcarbamoyl]-2-(4-ethoxy-phenyl)-ethyl]-amide] | 45 nM | 233 µg/mL (≈ 408 µM) | > 10000 nM | 
CCOc1ccc(C[C@@H](NC(=O)c2sccc2Cl)C(=O)N[C@@H](Cc2cccnc2)C(=O)NCc2ccc(CN)cc2)cc1 [Example 175, 3-Chloro-thiophene-2-carboxylic acid [(R)-1-[(S)-1-(4-aminomethyl-benzylcarbamoyl)-2-pyridin-3-yl-ethylcarbamoyl]-2-(4-ethoxy-phenyl)-ethyl]-amide] | 3 nM | 23.4 µg/mL (≈ 37.7 µM) | > 10000 nM | 

More lines, in order of falling IC50 (Human plasma kallikrein), values ahead:

IC50 (Human plasma kallikrein) | solubility at 1 h [1] | IC50 (Human KLK1) | solubility in PO4 buffer ([1]; 1 h) | Compound
83 nM | 2.86 µg/mL (≈ 4.79 µM) | > 10000 nM |  | CCOc1ccc(C[C@@H](NC(=O)c2ccccc2)C(=O)N[C@@H](Cc2ccc(F)cc2)C(=O)NCc2ccc(CN)cc2)cc1 [Example 143, N-[(R)-1-[(S)-1-(4-Aminomethyl-benzylcarbamoyl)-2-(4-fluoro-phenyl)-ethylcarbamoyl]-2-(4-ethoxy-phenyl)-ethyl]-benzamide]
51 nM | 0.12 µg/mL (≈ 0.205 µM) | > 10000 nM |  | CCOc1ccc(C[C@@H](NC(=O)c2ccccc2)C(=O)N[C@@H](Cc2cccs2)C(=O)NCc2ccc(CN)cc2)cc1 [Example 150, N-[(R)-1-[(S)-1-(4-Aminomethyl-benzylcarbamoyl)-2-thiophen-2-yl-ethylcarbamoyl]-2-(4-ethoxy-phenyl)-ethyl]-benzamide]
23 nM | 122 µg/mL (≈ 209 µM) | > 10000 nM |  | CCOc1ccc(C[C@@H](NC(=O)c2ccccc2)C(=O)N[C@@H](Cc2cscn2)C(=O)NCc2ccc(CN)cc2)cc1 [Example 152, N-[(R)-1-[(S)-1-(4-Aminomethyl-benzylcarbamoyl)-2-thiazol-4-yl-ethylcarbamoyl]-2-(4-ethoxy-phenyl)-ethyl]-benzamide]
22 nM | 0.44 µg/mL (≈ 0.718 µM) | > 10000 nM |  | CCOc1ccc(C[C@@H](NC(=O)c2ccccc2)C(=O)N[C@@H](Cc2ccccc2)C(=O)NCc2ccc(CN)c(Cl)c2)cc1 [Example 155, N-[(R)-1-[(S)-1-(4-Aminomethyl-3-chloro-benzylcarbamoyl)-2-phenyl-ethylcarbamoyl]-2-(4-ethoxy-phenyl)-ethyl]-benzamide]
21 nM | 3.14 µg/mL (≈ 5.26 µM) | > 10000 nM |  | CCOc1ccc(C[C@@H](NC(=O)c2ccccc2)C(=O)N[C@@H](Cc2ccccc2)C(=O)NCc2ccc(CN)c(F)c2)cc1 [Example 154, N-[(R)-1-[(S)-1-(4-Aminomethyl-3-fluoro-benzylcarbamoyl)-2-phenyl-ethylcarbamoyl]-2-(4-ethoxy-phenyl)-ethyl]-benzamide]
15 nM | 1.15 µg/mL (≈ 1.87 µM) | > 10000 nM |  | CCOc1ccc(C[C@@H](NC(=O)c2ccccn2)C(=O)N[C@@H](Cc2ccccc2)C(=O)NCc2ccc(CN)c(Cl)c2)cc1 [Example 159, Pyridine-2-carboxylic acid [(R)-1-[(S)-1-(4-aminomethyl-3-chloro-benzylcarbamoyl)-2-phenyl-ethylcarbamoyl]-2-(4-ethoxy-phenyl)-ethyl]-amide]
10 nM | 0.19 µg/mL (≈ 0.299 µM) | > 10000 nM |  | CCOc1ccc(C[C@@H](NC(=O)c2ccccc2)C(=O)N[C@@H](Cc2csc3ccccc23)C(=O)NCc2ccc(CN)cc2)cc1 [Example 153, N-[(R)-1-[(S)-1-(4-Aminomethyl-benzylcarbamoyl)-2-benzo[b]thiophen-3-yl-ethylcarbamoyl]-2-(4-ethoxy-phenyl)-ethyl]-benzamide]
10 nM | 20.4 µg/mL (≈ 33.5 µM) | > 10000 nM |  | CCOc1ccc(C[C@@H](NC(=O)c2ccc(OC)cc2)C(=O)N[C@@H](Cc2cccnc2)C(=O)NCc2ccc(CN)cc2)cc1 [Example 160, N-[(R)-1-[(S)-1-(4-Aminomethyl-benzylcarbamoyl)-2-pyridin-3-yl-ethylcarbamoyl]-2-(4-ethoxy-phenyl)-ethyl]-4-methoxy-benzamide]
